Where two headings read alike, the source gives them in different places.

For one data set, the system named is Botrytis cinerea. The experiment in a line: in vitro mycelial disc assay. The data set is classed as cell-based.
In another data set the test system is lettuce. Conditions: in vivo.
A further data set deals with pepper. The note with it: in vivo.
The subject of another data set is cucumber. Conditions: in vivo.
For data set [1], the system named is Podosphaera xanthii (powdery mildew). The data set can be described thus: in vitro leaf disc assay on cucumber cotyledons. The class given is cell-based.
In another data set the test system is strawberry. The note with it: in vivo.
Another data set relates to Fusarium graminearum. The data set is classed as cell-based.

Description for lettuce: (§1) These experiments were carried out to test the phytotoxic effects of HMTBA on cucurbit (cucumber), strawberry, pepper, and lettuce target crops. Young plants of Jackson Classic variety cucumber, Tango variety head lettuce, Compadre variety bell pepper, and Festival variety strawberry were grown under standard greenhouse conditions. One week-post planting cucumber and pepper plants, three week old lettuce, and four month old strawberry plants were treated.
(§2) Foliar sprays for HMTBA dilutions at 0.01, 0.1, 0.2 and 1.0% ai/v were applied twice per week for two weeks (total of four applications).
(§3) Height and width for each plant was measured (centimeters) for indication of growth changes between treated and untreated plants. Phytotoxicity ratings were taken weekly on a 0-10 scale, where 0 indicates no crop injury and 10 is damage (yellowing, scarring, wilting, necrosis, death) to the total plant from the treatment.
(§4) Area Under Disease Progress Curve (AUDPC), Abbot's formulation for percent control and all statistics were analyzed using ANOVA mean comparison with LSD test and a=0.05. Bartlett's test for homogeneity of variances was used to determine the need for data transformations. Letters in tables represent means separation significant and 0.05.
Description for pepper: as §1, §2, §3, §4
Description for strawberry: as §1, §2, §3, §4

Consider `O=C1C2CC=CCC2C(=O)N1SC(Cl)(Cl)Cl` (stereo not shown) [Captan, captan], for which the “B. cinerea Mycelial Growth % Control” value in the data set with Botrytis cinerea (Captan 0.001% ai/v) was determined as 21.05% cd; in the data set on Botrytis cinerea (Captan 0.01% ai/v), 53.68% b; with Botrytis cinerea (Captan 1% ai/v), 96.81% a. Moreover, the “B. cinerea Mycelial Growth Diameter (cm)” value with Botrytis cinerea (Captan 0.001% ai/v) is 1.68 bc cm; with Botrytis cinerea (Captan 0.01% ai/v), 0.97 cm·days; in the data set on Botrytis cinerea (Captan 1% ai/v) it was 0.07 e cm.

On to `CSCCC(O)C(=O)O` (stereo not shown) [HMTBA, 2-hydroxy-4(methylthio)butanoic acid], for which, in the data set with lettuce, the phytotoxic effects result is “no phytotoxic effects were recorded”; the “plant growth (height and width)” value is given as “unchanged from the untreated check”. Further, the “Pepper Phytotoxicity Rating (0-10)” value in the data set on pepper (Compadre variety, pepper) was 0.0 a. Further, in the data set with pepper, the phytotoxic effects result is recorded as “no phytotoxic effects were recorded”; the “plant growth (height and width)” value is recorded as “unchanged from the untreated check”. Further, in the data set with cucumber, the phytotoxic effects result is “no phytotoxic effects were recorded”; the “plant growth (height and width)” value was “unchanged from the untreated check”. Further, in data set [1] (0.1% HMTBA), the “P. xanthii % Control” value is recorded as 4.46% ef and the “Pest Severity Score 0-4” value is reported as 3.17 a. In the data set on Botrytis cinerea (0.1% HMTBA), the “B. cinerea Mycelial Growth % Control” value turned out to be 10.08% de and the “B. cinerea Mycelial Growth Diameter (cm)” value is 2.03 ab cm. In addition, the “Strawberry Phytotoxicity Rating (0-10)” value in the data set on strawberry (Festival variety, strawberry) was 0.0 a. In the data set on strawberry, the phytotoxic effects result is reported as “no phytotoxic effects were recorded”; the “plant growth (height and width)” value is given as “unchanged from the untreated check”. Moreover, in the data set with Fusarium graminearum (0.1% HMTBA), the “F. graminiearum % Control” value is 4.93% ef and the “Spore Diameter (cm)” value turned out to be 1.47 a cm.

As to `CO/C=C(/C(=O)OC)c1ccccc1Oc1cc(Oc2ccccc2C#N)ncn1` [Azoxystrobin, azoxystrobin], the results for the “P. xanthii % Control” value in data set [1] (Azoxystrobin 0.00001% ai/v), in data set [1] (Azoxystrobin 0.0001% ai/v) and in data set [1] (Azoxystrobin 0.1% ai/v) were 17.66% de, 44.23% c and 97.62% a, respectively. For the same compound, the figures for the “Pest Severity Score 0-4” value in data set [1] (Azoxystrobin 0.00001% ai/v), in data set [1] (Azoxystrobin 0.0001% ai/v) and in data set [1] (Azoxystrobin 0.1% ai/v) were 2.67 ab, 1.75 c and 0.08 e, respectively.

As to `CC1(C)CCC(Cc2ccc(Cl)cc2)C1(O)Cn1cncn1` (stereo not shown) [Metconazole, metconazole], the “F. graminiearum % Control” value was determined as 27.80% cde in the data set with Fusarium graminearum (Metconazole 0.001% ai/v), 66.98% ab with Fusarium graminearum (Metconazole 0.01% ai/v) and 93.08% a in the data set with Fusarium graminearum (Metconazole 1% ai/v). For the same compound, the “Spore Diameter (cm)” value in the data set on Fusarium graminearum (Metconazole 0.001% ai/v) was found to be 1.00 b cm; in the data set with Fusarium graminearum (Metconazole 0.01% ai/v) it was 0.50 cd cm; in the data set on Fusarium graminearum (Metconazole 1% ai/v) it was 0.17 cm·days.
